In patent US20250002492A1, “COMPOSITIONS OF FOLATE ABSORPTION INHIBITORS AND METHODS THEREOF” (THE TEXAS A&M UNIVERSITY SYSTEM, priority 2023, published 2025):
Read-outs that look alike come from different tables or passages of the source.

Columns and labels:
Swiss mice = conditions: 0-10 ppm in the diet in alternating weeks, male and female, 7 to 120 weeks of age; 5 of the 8 conditions tested; one case p=0.04; cited from earlier work
C. elegans strain N2 = assay: Lifespan assay in worms; type: in vivo
Text: The ability of pharmacological or other interventions to extend the lifespan of different organisms is often conserved. For the instant example, the disclosed compounds can be tested for their ability to extend the lifespan of the worm model system Caenorhabditis elegans (N2 strain) [see, e.g., PMID: 19488025]. The organisms can be first exposed to the compounds as adults, 2-3 days after the egg stage until their death, on solid media containing the compounds at the desired concentration. The temperature can be kept constant at 20° C. throughout the assays. The bacteria used as food for the worms (Escherichia coli strain OP-50) can be dead (e.g., killed by lethal doses of ultraviolet radiation) to ensure that any effects on lifespan are not indirect, mediated through bacterial metabolism.
The assays were performed at 20° C. using C. elegans strain N2 and a bacterial strain (OP50) commonly used as food for the worms. Briefly, the assays were performed on solid agar nematode growth media (NGM) plates prepared fresh before each experiment. The bacterial lawn was exposed twice to a UV dose of 120 mJ/cm^2 using a UVC-515 Ultraviolet Multilinker (Ultra-Lum, Inc.). Streaking these UV-exposed bacteria to fresh LB agar plates (1% w/v tryptone, 0.5% w/v yeast extract, 1% w/v sodium chloride) produced no visible colonies. Methotrexate, or the ATIC inhibitor, was first dissolved in DMSO and then added to the media used to prepare the plates after autoclaving (the media were kept in a 50° C. water bath until the plates were poured). Mock-treated control plates contained only DMSO. At the start of each experiment, a sufficient number of eggs were collected from plates without any drugs and then placed on plates containing the indicated doses of each compound tested. After hatching and progression to the adult stage, animals were transferred to new plates (marked as the start of the lifespan assay) containing the drug tested and fluorodeoxyuridine (FUDR; dissolved in water), added at 50 μM to block hatching of new animals. The plates were scored at least every other day until all the worms died. If an animal responded to gentle touch, it was scored as alive, otherwise a death was recorded, and the animal was removed from the plate. Worms were transferred to fresh plates as needed (e.g., if there was evidence of microbial contamination, dryness/cracks on the agar surface, consumption of the bacterial lawn, or hatching of new animals that escaped the FUDR block). The reported lifespans were compiled from several independent experiments done over several months (9-10 months for the methotrexate experiments and 4-5 months for the ATIC inhibitor), each scored by multiple individuals (4-5 persons per experiment). No experiments were excluded from the analysis.

[1] = tested on: S. cerevisiae strain BY4742; assay: Cell size measurement in yeast (Z2 Channelyzer); type: cell-based; conditions: from 47 fL
Procedure: (§1) In the instant example, methotrexate (MTX), or the ATIC inhibitor (ATIC-Inh), was dissolved in dimethylsulfoxide (DMSO) and used at the final concentrations shown in FIGS. 2B-2D. The cell size measurements shown in FIG. 3 were also done in strain BY4742 in YPD.
Briefly, overnight cultures were diluted to about 5×10^5 cells/mL in fresh media, allowed to proliferate for 2-3 h at 30° C., and then methotrexate was added at the indicated final concentrations. 4-5 h later, cell size was measured with a Z2 Channelyzer.

C. elegans = conditions: 220 μM, treated at the adult stage; cited from earlier work
yeast cells = assay: Yeast cell proliferation; type: cell-based, S. cerevisiae; conditions: low doses (0.5-10 μM); not shown
mice = conditions: cited from earlier work
[2] = tested on: S. cerevisiae strain BY4742; assay: Replicative lifespan assay in yeast; type: cell-based
Procedure: The assays were performed in the standard S. cerevisiae strain BY4742 (MATα his3Δ1 leu2Δ0 lys2Δ0 ura3Δ0) on solid rich undefined media (YPD; 1% w/v yeast extract, 2% W/v peptone, 2% W/v dextrose, 2% w/v agar).
as §1

In the case of CN(Cc1cnc2nc(N)nc(N)c2n1)c1ccc(C(=O)N[C@@H](CCC(=O)O)C(=O)O)cc1 [methotrexate, 4-amino-N10-methylpteroylglutamic acid], the “mean lifespan vs control group” value (Swiss mice) is listed as “mean lifespan was longer than in the control group”, the lifespan extension (C. elegans strain N2; 1-3 μM, continuous exposure from embryo stage until death, p<2E-14 log-rank) is listed as ~15% and the “lifespan” value (C. elegans strain N2; higher doses 10-100 μM, not shown) is listed as “did not extend lifespan”. The cell size ([1]; 50 μM) was 56 fL, the cell size ([1]; 100 μM) was 64 fL and the cell size ([1]; concentrations up to 10 μM) was 52 fL. For the same compound, the “lifespan” value (C. elegans) was “did not extend their lifespan”, the “cell proliferation” value (yeast cells) was “did not affect cell proliferation significantly” and the LD50 (mice; 5-week-old mice) was 59 mg/kg. The LD50 (mice; 16-week-old mice) was 284 mg/kg, the “yeast replicative lifespan” value ([2]; 0.5-10 μM, p<0.05 log-rank test) was “increased yeast replicative lifespan” and the maximal lifespan extension ([2]; dose 1 μM) was ~15%. For the same compound, the “yeast replicative longevity” value ([2]; higher concentrations (above 10 μM; 50-100 μM)) was “did not extend replicative longevity”.
